Experimental data as given in US11510931B2, “Compositions and methods for treating ophthalmic conditions” (MEDICON PHARMACEUTICALS, INC., priority 2016, dated 2022).

Experiments:
[1] = test system: VEGF-A; assay: Secreted VEGF in culture medium of human ovarian cancer cells (ELISA); format: cell-based; settings: PS 1.0×IC50, 24 h
Experimental: First, the effect of PS on VEGF production was evaluated by cultured human cancer ovarian cells, known to secrete VEGF to recruit vascular endothelial cells for angiogenesis. Therefore, VEGF is one of the most significant and direct targets in an anti-angiogenesis strategy. The experiments discovered that VEGF levels are reduced in ovarian cancer cells by PS. Secreted VEGF was assayed in the culture medium by ELISA.

[2] = Ocular biodistribution of PS after topical eye drops in New Zealand white rabbits (HPLC); format: in vivo, rabbit
Experimental: Results: The above PS formulation was administered topically as eye drops to the eyes of New Zealand white rabbits. The levels of PS in ocular tissues 1 h and 3 h later were determined by HPLC. The Table below summarizes the findings:
Results: The above PS formulation was administered topically as eye drops to the eyes of New Zealand white rabbits. The levels of PS in ocular tissues at 2 h later were determined by HPLC. The table below summarizes the findings.
Results: PS in this formulation was administered topically to the eyes of New Zealand white rabbits and its biodistribution was determined as above. The Table below summarizes the findings.
Results: PS in this formulation was administered topically as eye drops to the eyes of New Zealand white rabbits. The biodistribution of PS in ocular tissues at 3 h and 6 h was determined by HPLC. The Table below summarizes the findings.
Biodistribution of PS after topical administration: PS formulated in nanoparticles as above was administered topically as eye drops to New Zealand white rabbits. The biodistribution of PS in ocular tissues at the indicated time points post administration was determined by HPLC. The Table below summarizes the findings.
Biodistribution of PS after topical administration: PS in the formulations was administered topically as eye drops to the eyes of New Zealand white rabbits. The levels of PS in ocular tissues at 0.5 h, 1 h and 3 h were determined by HPLC. The Table below summarizes the findings.
To assess the contribution of the foregoing formulations to the PK/biodistribution of PS in the ocular tissues, a solution of PS in pure propylene glycol (PG) was studied. PG is well tolerated by the eye. A 3.5% PS solution (in PG) as eye drops was administered topically to the eyes of New Zealand white rabbits and its 1-hour biodistribution was determined by HPLC. The Table summarizes the findings.

[3] = 0.5 h, topical, 0.4% gellan gum in-situ gel, 2.4-3% PS
[4] = 1 h, topical eye drops, 3.5% PS/16% Vitamin E TPGS/mannitol/boric acid
[5] = 1 h, topical, 0.4% gellan gum in-situ gel, 2.4-3% PS
[6] = 1 h, topical, sodium alginate/Tween 80 in-situ gel, 3% PS
[7] = 2 h, topical, 0.5% gellan gum in-situ gel, 2.4~3% PS
[8] = 3 h, topical eye drops, 3.5% PS/16% Vitamin E TPGS/mannitol/boric acid
[9] = 3 h, topical, 0.4% gellan gum in-situ gel, 2.4-3% PS
[10] = 3 h, topical, Poloxamer 407 in-situ gel, 5.4% PS
[11] = 3 h, topical, sodium alginate/Tween 80 in-situ gel, 3% PS
[12] = 5 h, topical, 0.4% gellan gum in-situ gel, 2.4-3% PS
[13] = 5 h, topical, sodium alginate/Tween 80 in-situ gel, 3% PS
[14] = 8 h, topical, 0.4% gellan gum in-situ gel, 2.4-3% PS

CCOP(=O)(OCC)OCCCCOC(=O)CC1=C(C)/C(=C/c2ccc([S+](C)[O-])cc2)c2ccc(F)cc21 (stereo not shown) [PS, phosphosulindac]
VEGF-A, % inhibition ([1]; A2780): 64% | VEGF-A, % inhibition ([1]; A2780ADR): 77% | VEGF-A, % inhibition ([1]; A2780cis): 65% | VEGF-A, % inhibition ([1]; OVCAR-3): 100% | VEGF-A, % inhibition ([1]; SKOV-3): 96% | PS in Aqueous humor [2, 3]: 0.6 µM | PS in Conjunctiva [2, 3]: 37.7 µM | PS in Cornea [2, 3]: 24.3 µM | PS in Aqueous humor [2, 4]: 2.3 µM | PS in Choroid [2, 4]: 3.2 µM | PS in Conjunctiva [2, 4]: 9.3 µM | PS in Cornea [2, 4]: 6.9 µM | PS in Iris [2, 4]: 0.7 µM | PS in Lacrimal gland [2, 4]: 0.1 µM | PS in Lens [2, 4]: 1.8 µM | PS in Retina [2, 4]: 2.7 µM | PS in Sclera [2, 4]: 2.3 µM | PS in Vitreous body [2, 4]: 3.6 µM | PS in Aqueous humor [2, 5]: 0.4 µM | PS in Conjunctiva [2, 5]: 20.8 µM | PS in Cornea [2, 5]: 50.8 µM | PS in Aqueous humor [2, 6]: 0.4 µM | PS in Conjunctiva [2, 6]: 4.9 µM | PS in Cornea [2, 6]: 17.8 µM | PS in Aqueous humor [2, 7]: 1.2 µM | PS in Conjunctiva [2, 7]: 24.1 µM | PS in Cornea [2, 7]: 72.0 µM | PS in Aqueous humor [2, 8]: 0.1 µM | PS in Choroid [2, 8]: 0.2 µM | PS in Conjunctiva [2, 8]: 0.5 µM | PS in Cornea [2, 8]: 0.8 µM | PS in Iris [2, 8]: 0.9 µM | PS in Lacrimal gland [2, 8]: 0.5 µM | PS in Lens [2, 8]: 0.1 µM | PS in Retina [2, 8]: 0.2 µM | PS in Sclera [2, 8]: 0.2 µM | PS in Conjunctiva [2, 9]: 0.7 µM | PS in Cornea [2, 9]: 1.5 µM | PS in Choroid [2, 10]: 0.9 µM | PS in Cornea [2, 10]: 45.1 µM | PS in Aqueous humor [2, 11]: 0.3 µM | PS in Conjunctiva [2, 11]: 2.1 µM | PS in Cornea [2, 11]: 5.0 µM | PS in Conjunctiva [2, 12]: 1.1 µM | PS in Cornea [2, 12]: 1.1 µM | PS in Conjunctiva [2, 13]: 2.3 µM | PS in Cornea [2, 13]: 1.0 µM | PS in Conjunctiva [2, 14]: 0.7 µM | PS in Cornea [2, 14]: 1.6 µM | PS in Conjunctiva ([2]; 8 h, topical, sodium alginate/Tween 80 in-situ gel, 3% PS): 1.3 µM | concentration at 5 h ([2]; New Zealand white, rabbit, aqueous humor, topical, 3 % PS, 5 h, topical, sodium alginate/Tween 80 in-situ gel, 3% PS, read-out: PS in Aqueous humor): 0 nM | concentration at 8 h ([2]; New Zealand white, rabbit, aqueous humor, topical, 3 % PS, 8 h, topical, sodium alginate/Tween 80 in-situ gel, 3% PS, read-out: PS in Aqueous humor): 0 nM | concentration at 1 h ([2]; New Zealand white, rabbit, aqueous humor, topical, 3.5 % PS solution (eye drops), 1 h, topical eye drops, 3.5% PS solution in propylene glycol, read-out: PS in Aqueous humor): 700 nM | concentration at 3 h ([2]; New Zealand white, rabbit, aqueous humor, topical, 5.4 % PS, 3 h, topical, Poloxamer 407 in-situ gel, 5.4% PS, read-out: PS in Aqueous humor): 300 nM | concentration at 6 h ([2]; New Zealand white, rabbit, aqueous humor, topical, 5.4 % PS, 6 h, topical, Poloxamer 407 in-situ gel, 5.4% PS, read-out: PS in Aqueous humor): 300 nM
